In assay [1] the target is T1, PmC11 (Parabacteroides merdae, UniProt A0ABF7PHE6).
T1 construct: gene PARMER_00083; signal peptide Met1-Asn22 deleted (for structure); N-terminal tag MGSDKIHHHHHHENLYFQ/G, kept in assays; E. coli BL21 Star (DE3); monomer
T1 sequence (A0ABF7PHE6 23-147): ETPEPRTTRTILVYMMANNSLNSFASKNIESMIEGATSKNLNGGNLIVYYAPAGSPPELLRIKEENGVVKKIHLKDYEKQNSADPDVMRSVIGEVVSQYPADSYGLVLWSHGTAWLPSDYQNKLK
T1 sequence (A0ABF7PHE6 148-375): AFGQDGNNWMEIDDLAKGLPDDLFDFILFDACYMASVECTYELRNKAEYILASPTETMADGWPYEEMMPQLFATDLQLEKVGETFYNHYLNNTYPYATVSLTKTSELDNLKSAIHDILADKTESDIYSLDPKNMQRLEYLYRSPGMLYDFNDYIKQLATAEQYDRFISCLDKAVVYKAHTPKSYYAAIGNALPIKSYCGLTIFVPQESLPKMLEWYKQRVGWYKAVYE
As to the kind of experiment: fluorogenic AMC release, Lineweaver-Burk. Format: biochemical. The settings on record: pH 8.0, 20 mM Tris, 150 mM NaCl, 37 °C; enzyme preincubated 16 h at 37 °C; 0-600 μM substrate. On the procedure: (§1) fluorogenic AMC release, Lineweaver-Burk on PmC11 | Km and Vmax of PmC11 and K147A mutant were determined by monitoring change in the fluorescence

Assay [2] addresses T2, PmC11 (Parabacteroides merdae, UniProt A0ABF7PHE6, K147A, form not given).
T2 construct: gene PARMER_00083; signal peptide Met1-Asn22 deleted (for structure); N-terminal tag MGSDKIHHHHHHENLYFQ/G, kept in assays; E. coli BL21 Star (DE3); monomer
T2 sequence (A0ABF7PHE6 23-147 K147A): T1 sequence (A0ABF7PHE6 23-147) with K125A
T2 sequence (A0ABF7PHE6 148-375): T1 sequence (A0ABF7PHE6 148-375)
The assay can be described thus: fluorogenic AMC release, Lineweaver-Burk. The class given is biochemical. The note with it: pH 8.0, 20 mM Tris, 150 mM NaCl, 37 °C; enzyme preincubated 16 h at 37 °C; 0-600 μM substrate; unprocessed cleavage-site mutant. On the procedure:
as §1

Changes are numbered by the printed parent chain.

The record followed here is paper PMC4850288, “Crystal Structure and Activity Studies of the C11 Cysteine Peptidase from Parabacteroides merdae in the Human Gut Microbiome” (The Journal of Biological Chemistry, 2016).

In the case of `Cc1cc(=O)oc2cc(NC(=O)[C@H](CCCNC(=N)N)NC(=O)c3ccccc3)ccc12` [Bz-R-AMC, benzoyl-L-Arg-4-methylcoumaryl-7-amide], the Michaelis-Menten constant (Km) (as a rule, the concentration of substrate that gives half-maximal velocity) in assay [1] stood at 274 ± 6 µM; in assay [2] it was 301 ± 239 µM.
